Test results: US8691210B2, “Methods and compositions for generating an immune response by inducing CD40 and pattern recognition receptors and adaptors thereof” (priority 2006, dated 2014)

B1: CD40L: CD40 ligand (Alexis Biochemicals) (protein)
chain: GDQNPQIAAHVISEASSKTTSVLQWAEKGYYTMSNNLVTLENGKQLTVKRQGLYYIYAQVTFCSNREASSQAPFIASLCLKSPGRFERILLRAANTHSSAKPCGQQSIHLGGVFELQPGASVFVNVTDPSQVSHGTGFTSFGLLKL

Key:
BMDCs [1] = experiment: In vitro serum-starvation DC survival assay (propidium iodide); type: cell-based, murine; conditions: relative to non-transduced DCs treated with CD40L or untreated BMDCs
Excerpt: In addition to DC activation state, DC longevity is another critical variable that influences the generation of T cell-dependent immunity. In fact, CTL-mediated killing of DCs is considered to be a significant mechanism for modulating immune responses while protecting the host from autoimmune pathologies^55,56. Other work has established that CD40 stimulation of DCs prolongs their survival by a variety of mechanisms, including upregulation of the anti-apoptotic protein bcl-XL and the granzyme B inhibitor, Spi-6^57,58. The effects of iCD40 relative to CD40L on DC survival were compared in an in vitro serum-starvation culture assay (FIG. 11E).

human DCs = experiment: Cytokine (IL-12p70, IL-6) ELISA of human DC culture supernatants; type: cell-based; conditions: iCD40-DCs stimulated with the named TLR ligand
Experimental: Approximately 2×10^6 cells/ml were cultured in a 24-well dish and transduced with adenoviruses at 10,000 viral particle (vp)/cell (−160 MOI) for 90 min at 37° C. and 5% CO2. Immediately after transduction DCs were stimulated with MPL, FSL-1, Pam3CSK4 (InvivoGen, San Diego, Calif.), LPS (Sigma-Aldrich, St. Louis, Mo.), AP20187 (kind gift from ARIAD Pharmaceuticals, Cambridge, Mass.) or maturation cocktail (MC), containing 10 ng/ml TNF-alpha, 10 ng/ml IL-1beta, 150 ng/ml IL-6 (R&D Systems, Minneapolis, Minn.) and 1 micrograms/ml of PGE2 (Cayman Chemicals, Ann Arbor, Mich.). In T cell assays DCs were pulsed with 50 micrograms/ml of PSMA or MAGE 3 peptide 24 hours before and after adenoviral transduction.
Cell surface staining was done with fluorochrome-conjugated monoclonal antibodies (BD Biosciences, San Diego, Calif.). Cells were analyzed on a FACSCalibur cytometer (BD Biosciences, San Jose, Calif.). Cytokines were measured in culture supernatants using enzyme-linked immunosorbent assay kits for human IL-6 and IL-12p70 (BD Biosciences).

BMDCs [2] = experiment: BMDC survival (GM-CSF deprivation, wortmannin); type: cell-based
Experimental: To further test the hypothesis that PI3K and Akt are common regulators for innate and acquired immune signal-mediated DC survival, various concentrations (0.05-5 μM) of PI3K inhibitor, wortmannin, in BMDCs treated with LPS or anti-CD40 were tested.
To more directly investigate the role of Akt in PI3K-mediated DC survival, a previously described constitutively active Akt (M-Akt) allele, consisting of full length Akt, targeted to intracellular membranes with a myristoylation-targeting sequence from c-Src^62 was used. […] Therefore, to test the possibility that the efficient lipid raft localization of Akt improve its functions, this construct was compared with several distinct deregulated Akt alleles, containing myristoylation-targeting sequences from Src family kinases Src, Fyn and Lck fused to AAkt. The pleckstrin homology (PH) domain (residues 1-102) was removed to further improve Akt activity when PI3K is limiting^64. […] Therefore, MF-ΔAkt was used in subsequent experiments. Moreover, for improved expression in BMDCs, replication-defective adenovirus, Ad-MF-ΔAkt, expressing functionally optimized Akt was generated. Consistently, Ad-MF-ΔAkt led to higher GSK3α/β phosphorylation in BMDCs, compared with Ad-M-Akt^62. […] Thus, functionally optimized Akt almost completely suppresses induction of DC death by PI3K (but not Src) inhibition. […]

human SOCS1 = experiment: Real time Q-PCR assay for human SOCS1 in DCs; type: cell-based
Excerpt: Total RNA was purified and reverse transcribed with random hexamers using SuperScript II RTase (Invitrogen, Carlsbad, Calif.). mRNA levels were quantified in DCs by subjecting cDNA to TaqMan PCR analysis using the GeneAmp 5700 Sequence Detection System (Applied Biosystems, Foster City, Calif.). Pre-developed sequence detection reagents (Applied Biosystems) specific for human SOCS1 and 18S rRNA, including forward and reverse primers as well as a fluorogenic TaqMan FAM-labeled hybridization probe, were supplied as mixtures and were used at 1 microliter/20 microliter PCR. Samples were run in duplicates. The level of SOCS1 expression in each sample was normalized to the level of 18S rRNA from the same sample using the comparative 2-ΔΔCT method^21.

[3] = test system: primary bone marrow-derived DCs (BMDCs); experiment: iCD40 functionality in primary BMDCs (surface markers, intracellular IL-12 staining); type: cell-based, murine; conditions: stimulation with LPS and CD40L
Excerpt: A helper-dependent, […] adenoviral vector, named Ad-iCD40-GFP, was engineered to express both iCD40 and EGFP under the control of the CMV early/immediate promoter/enhancer. Ad-iCD40-GFP successfully transduced and expressed the iCD40 transgene, as well as the EGFP marker, in purified BMDCs (FIG. 11A,B). […] The effects of Ad-iCD40-GFP on BMDCs using intracellular cytokine staining to evaluate DC expression of the TH1-polarizing cytokine, IL-12 was then investigated. These findings confirmed numerous previous reports that an empty adenoviral vector can contribute to background fluorescence readings by stimulating the production of low levels of this cytokine. (FIG. 11D)^53. […] However, AP20187 exposure of these iCD40-expressing DCs managed to reproducibly overcome these cumulative effects to further increase the percentage of IL-12′ DCs.

[4] = test system: Naive CD4+CD45RA+ T cells; experiment: Polarization of naive T helper cells; type: cell-based, human; conditions: tetanus toxoid-pulsed DCs, restimulation with TTp30
Excerpt: Naïve CD4+CD45RA+ T-cells from HLA-DR11.5-positive donors (genotyped using FASTYPE HLA-DNA SSP typing kit; BioSynthesis, Lewisville, Tex.) were isolated by negative selection using naïve CD4+ T cell isolation kit (Miltenyi Biotec, Auburn, Calif.). T cells were stimulated with autologous DCs pulsed with tetanus toxoid (5 FU/ml) and stimulated with various stimuli at a stimulator to responder ratio of 1:10. After 7 days, T cells were restimulated with autologous DCs pulsed with the HLA-DR11.5-restricted helper peptide TTp30 and transduced with adenovector Ad-iCD40. Cells were stained with PE-anti-CD4 Ab (BD Biosciences), fixed and permeabilized using BD Cytofix/Cytoperm kit (BD Biosciences), then stained with hIFN-gamma mAb (eBioscience, San Diego, Calif.) and analyzed by flow cytometry. Supernatants were analyzed using human TH1/TH2 BD Cytometric Bead Array Flex Set on BD FACSArray Bioanalyzer (BD Biosciences).

Molecule	IL12-p70 induced by TLR ligand in iCD40-DCs (human DCs)	Time of peak IL-12p70/p40 synthesis [3]	further results
CC[C@H](C(=O)N1CCCC[C@H]1C(=O)O[C@H](CCc1ccc(OC)c(OC)c1)c1cccc(OCC(=O)NCC(CNC(=O)COc2cccc([C@@H](CCc3ccc(OC)c(OC)c3)OC(=O)[C@@H]3CCCCN3C(=O)[C@@H](CC)c3cc(OC)c(OC)c(OC)c3)c2)CN(C)C)c1)c1cc(OC)c(OC)c(OC)c1 [AP20187]			DC longevity (BMDCs [1]): even further enhanced this survival effect
FSL-1	only low levels		
Lipopolysaccharide [LPS]	synergized with CD40 signaling	8 h	Protection against GM-CSF deprivation-mediated DC death (BMDCs [2]): protect against GM-CSF deprivation-mediated DC death; SOCS1 induction (human SOCS1): up-regulated SOCS1 expression
Pam3 CSK4	only low levels		
monophosphoryl lipid A [MPL]	synergized with CD40 signaling		IFN-gamma production in CD4+ T cells [4]: not induced
B1		8 h	
